Source: US20090239841A1, “Diaryl Ureas as CB1 Antagonists” (priority 2004, published 2009)

What follows are molecules tested against T1, hCB1 (Homo sapiens, UniProt P21554) (assay: Agonist-induced GTP binding (GTPγ35S) assay at CB1, Example 8). Conditions: IC50 at CB1, determined as described in Example 8; read-out: IC50.
T1 construct: made in house; host or cells: Sf9 insect cells (baculovirus), P2 membranes
Type: biochemical
Procedure, shortened: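 Membranes from Sf9 cells co-expressing hCB1 and heterotrimeric G-protein (10 μg protein) in Tris pH 7.4 buffer with 5 μM GDP. Test compounds (10^−10–10^−5 M) competed against 1 nM CP55,940 with […] GTPγ35S, 60 min at room temperature. Filter-bound radioactivity by scintillation, expressed as percent above basal.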

T1 sequence (P21554 whole entry): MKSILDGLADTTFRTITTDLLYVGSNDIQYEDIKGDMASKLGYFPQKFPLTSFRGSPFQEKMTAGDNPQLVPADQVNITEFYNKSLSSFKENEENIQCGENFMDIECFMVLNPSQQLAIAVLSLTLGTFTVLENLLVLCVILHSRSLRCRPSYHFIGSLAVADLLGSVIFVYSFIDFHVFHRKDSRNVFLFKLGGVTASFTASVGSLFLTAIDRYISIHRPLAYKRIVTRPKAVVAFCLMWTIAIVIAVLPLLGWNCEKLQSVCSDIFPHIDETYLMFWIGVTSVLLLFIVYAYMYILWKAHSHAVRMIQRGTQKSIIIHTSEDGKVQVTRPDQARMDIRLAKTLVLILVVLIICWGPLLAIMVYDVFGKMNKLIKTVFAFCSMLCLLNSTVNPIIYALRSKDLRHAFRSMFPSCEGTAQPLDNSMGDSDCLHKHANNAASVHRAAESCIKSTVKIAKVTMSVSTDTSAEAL

IC50, < 2000 nM:
COCc1ccc(NC(=O)Nc2cccc(OC)c2)cc1 [Compound 544, 1-[4-(methoxymethyl)phenyl]-3-(3-methoxyphenyl)urea]
COCc1ccc(NC(=O)Nc2ccc(C(=O)OC)cc2)cc1 [Compound 668, methyl 4-[({[4-(methoxymethyl)phenyl]amino}carbonyl)amino]benzoate]
CCOc1cccc(NC(=O)Nc2ccc(F)c(F)c2)c1 [Compound 683, 1-(3,4-difluorophenyl)-3-(3-ethoxyphenyl)urea]
COc1ccc(NC(=O)Nc2ccc(C(C)=O)cc2)cc1 [Compound 410, 1-(4-acetylphenyl)-3-(4-methoxyphenyl)urea]
COC(=O)c1cccc(NC(=O)Nc2ccc(C)c(F)c2)c1 [Compound 765, methyl 3-({[(3-fluoro-4-methylphenyl)amino]carbonyl}amino)benzoate]
CC(=O)c1cccc(NC(=O)Nc2ccc3c(c2)CCC3)c1 [Compound 455, 1-(3-acetylphenyl)-3-(2,3-dihydro-1H-inden-5-yl)urea]
Cc1cc(NC(=O)Nc2ccc(OCC#N)cc2)ccc1F [Compound 731, 1-[4-(cyanomethoxy)phenyl]-3-(4-fluoro-3-methylphenyl)urea]
CC(=O)c1ccc(NC(=O)Nc2ccc(C)cc2)cc1 [Compound 338, 1-(4-acetylphenyl)-3-(4-methylphenyl)urea]
CC(C)c1ccc(NC(=O)Nc2ccc(C#N)cc2)cc1 [Compound 345, 1-(4-cyanophenyl)-3-(4-isopropylphenyl)urea]
COc1ccc(NC(=O)Nc2cccc(C#N)c2)cc1 [Compound 409, 1-(3-cyanophenyl)-3-(4-methoxyphenyl)urea]
CC(C)OC(=O)c1ccc(NC(=O)Nc2cccc(F)c2)cc1 [Compound 479, isopropyl 4-({[(3-fluorophenyl)amino]carbonyl}amino)benzoate]
CCc1ccc(NC(=O)Nc2ccccn2)cc1 [Compound 638, 1-(4-ethylphenyl)-3-pyridin-2-ylurea]
CC(C)Oc1cccc(NC(=O)Nc2cccc(F)c2)c1 [Compound 363, 1-(3-fluorophenyl)-3-(3-isopropoxyphenyl)urea]
CCOc1cccc(NC(=O)Nc2ccc(C)c(C)c2)c1 [Compound 680, 1-(3,4-dimethylphenyl)-3-(3-ethoxyphenyl)urea]
CCc1ccc(NC(=O)Nc2ccc(OC(C)C)cc2)cc1 [Compound 403, 1-(4-ethylphenyl)-3-(4-isopropoxyphenyl)urea]
COCc1ccc(NC(=O)Nc2cccc(C(C)=O)c2)cc1 [Compound 414, 1-(3-acetylphenyl)-3-[4-(methoxymethyl)phenyl]urea]
CCOC(=O)c1cccc(NC(=O)Nc2ccc(C)c(F)c2)c1 [Compound 766, ethyl 3-({[(3-fluoro-4-methylphenyl)amino]carbonyl}amino)benzoate]
CCOC(=O)c1ccc(NC(=O)Nc2ccc(OCC#N)cc2)cc1 [Compound 719, ethyl 4-[({[4-(cyanomethoxy)phenyl]amino}carbonyl)amino]benzoate]
Cc1ccc(NC(=O)Nc2cccc(OC(C)C)c2)cc1C [Compound 687, 1-(3,4-dimethylphenyl)-3-(3-isopropoxyphenyl)urea]
CC(C)OC(=O)c1ccc(NC(=O)Nc2ccc(OC(F)F)cc2)cc1 [Compound 584, isopropyl 4-[({[4-(difluoromethoxy)phenyl]amino}carbonyl)amino]benzoate]
CCc1cccc(NC(=O)Nc2ccc(OCC#N)cc2)c1 [Compound 488, 1-[4-(cyanomethoxy)phenyl]-3-(3-ethylphenyl)urea]
CCOc1ccc(NC(=O)Nc2ccc(Cl)nc2)cc1 [Compound 629, 1-(6-chloropyridin-3-yl)-3-(4-ethoxyphenyl)urea]
CCc1ccc(NC(=O)Nc2ccc(C)c(F)c2)cc1 [Compound 439, 1-(4-ethylphenyl)-3-(3-fluoro-4-methylphenyl)urea]
CCOc1ccc(NC(=O)Nc2cccc(OC(C)C)c2)cc1 [Compound 550, 1-(4-ethoxyphenyl)-3-(3-isopropoxyphenyl)urea]
Cc1ccc(NC(=O)Nc2ccc(OC(C)C)cc2)cc1 [Compound 366, 1-(4-isopropoxyphenyl)-3-(4-methylphenyl)urea]
CCCOc1ccc(NC(=O)Nc2ccc([N+](=O)[O-])cc2)cc1 [Compound 562, 1-(4-nitrophenyl)-3-(4-propoxyphenyl)urea]
O=C(Nc1ccc(F)c(F)c1)Nc1ccc2c(c1)CCC2 [Compound 775, 1-(3,4-difluorophenyl)-3-(2,3-dihydro-1H-inden-5-yl)urea]
CCCOc1ccc(NC(=O)Nc2cccc(C(C)=O)c2)cc1 [Compound 416, 1-(3-acetylphenyl)-3-(4-propoxyphenyl)urea]
Cc1ccc(NC(=O)Nc2ccc(OCC#N)cc2)cc1F [Compound 730, 1-[4-(cyanomethoxy)phenyl]-3-(3-fluoro-4-methylphenyl)urea]
CC(C)c1ccc(NC(=O)Nc2ccc(Cl)cc2)cc1 [Compound 333, 1-(4-chlorophenyl)-3-(4-isopropylphenyl)urea]
CCCOc1ccc(NC(=O)Nc2ccc(Cl)cc2)cc1 [Compound 398, 1-(4-chlorophenyl)-3-(4-propoxyphenyl)urea]
CC(C)Oc1ccc(NC(=O)Nc2ccc(OC(F)(F)F)cc2)cc1 [Compound 538, 1-(4-isopropoxyphenyl)-3-[4-(trifluoromethoxy)phenyl]urea]
Cc1ccc(NC(=O)Nc2cccc(C#N)c2)cc1Cl [Compound 457, 1-(3-chloro-4-methylphenyl)-3-(3-cyanophenyl)urea]
Cc1ccc(NC(=O)Nc2ccc(N3CCCCC3)cc2)cc1 [Compound 322, 1-(4-methylphenyl)-3-(4-piperidin-1-ylphenyl)urea]
CC(C)Oc1cccc(NC(=O)Nc2ccc(F)c(F)c2)c1 [Compound 690, 1-(3,4-difluorophenyl)-3-(3-isopropoxyphenyl)urea]

Same assay, conditions: Table I; IC50 at CB1, GTP binding with 1 nM CP55,940; read-out: IC50

IC50, < 2000 nM:
CCc1ccc(NC(=O)Nc2ccc(C#N)cc2)cc1 [Compound 27, N-(4-cyanophenyl)-N′-(4-ethylphenyl)urea]
Cc1nccc(-c2cccc(NC(=O)Nc3ccc(OC(F)F)cc3)c2)n1 [Compound 10, N-[4-(difluoromethoxy)phenyl]-N′-[3-(2-methylpyrimidin-4-yl)phenyl]urea]
CCc1ccc(NC(=O)Nc2cccc(C)c2)cc1 [Compound 59, N-(4-ethylphenyl)-N′-(3-methylphenyl)urea]

Same assay, conditions: Table II; IC50 at CB1, GTP binding with 1 nM CP55,940; read-out: IC50

IC50, < 2000 nM:
Cc1ccc(NC(=O)Nc2ccc(C(C)C)cc2)cc1 [Compound 157, N-(4-isopropylphenyl)-N′-(4-methylphenyl)urea]
O=C(Nc1ccc(Oc2ccccc2)cc1)Nc1ccc(OC(F)F)cc1 [Compound 86, N-[4-(difluoromethoxy)phenyl]-N′-(4-phenoxyphenyl)urea]
CC(=O)c1cccc(NC(=O)Nc2cccc(OC(C)C)c2)c1 [Compound 277, N-(3-acetylphenyl)-N′-(3-isopropoxyphenyl)urea]
CCOc1cccc(NC(=O)Nc2ccc(C)cc2)c1 [Compound 202, N-(3-ethoxyphenyl)-N′-(4-methylphenyl)urea]
CCc1cccc(NC(=O)Nc2cccc(OC(F)F)c2)c1 [Compound 253, N-[3-(difluoromethoxy)phenyl]-N′-(3-ethylphenyl)urea]
CCOc1cccc(NC(=O)Nc2ccc(CC)cc2)c1 [Compound 231, N-(3-ethoxyphenyl)-N′-(4-ethylphenyl)urea]
Cc1n[nH]cc1-c1cccc(NC(=O)Nc2ccc(OC(F)F)cc2)c1 [Compound 116, N-[4-(difluoromethoxy)phenyl]-N′-[3-(3-methyl-1H-pyrazol-4-yl)phenyl]urea]
COCc1ccc(NC(=O)Nc2cccc(Cl)c2)cc1 [Compound 241, N-(3-chlorophenyl)-N′-[4-(methoxymethyl)phenyl]urea]
CC(=O)c1cccc(NC(=O)Nc2cccc(OC(F)F)c2)c1 [Compound 285, N-(3-acetylphenyl)-N′-[3-(difluoromethoxy)phenyl]urea]
CCOc1cccc(NC(=O)Nc2ccc(C(C)=O)cc2)c1 [Compound 263, N-(4-acetylphenyl)-N′-(3-ethoxyphenyl)urea]
CCCc1ccc(NC(=O)Nc2cccc(CC)c2)cc1 [Compound 183, N-(3-ethylphenyl)-N′-(4-propylphenyl)urea]
CC(C)Oc1ccc(NC(=O)Nc2cccc(F)c2)cc1 [Compound 215, N-(3-fluorophenyl)-N′-(4-isopropoxyphenyl)urea]
CCOc1ccc(NC(=O)Nc2ccc(Cl)cc2)cc1 [Compound 237, N-(4-chlorophenyl)-N′-(4-ethoxyphenyl)urea]
O=C(Nc1ccc(OC(F)F)cc1)Nc1cccc(-c2ccc(Cl)cn2)c1 [Compound 74, N-[3-(5-chloropyridin-2-yl)phenyl]-N′-[4-(difluoromethoxy)phenyl]urea]
CCc1ccc(NC(=O)Nc2ccc(C(C)C)cc2)cc1 [Compound 181, N-(4-ethylphenyl)-N′-(4-isopropylphenyl)urea]
O=C(Nc1ccc(OC(F)(F)F)cc1)Nc1cccc(OCCO)c1 [Compound 101, N-[3-(2-hydroxyethoxy)phenyl]-N′-[4-(trifluoromethoxy)phenyl]urea]
